Series [1] concerns 3-vessel occlusion (3-VO) cerebral arteriogenesis model in rat. Briefly: 3-vessel occlusion (3-VO) cerebral arteriogenesis model: collateral growth / diameter of the posterior cerebral artery (postmortem latex perfusion). In kind it is in vivo. To be noted: rat 3-VO model, antagonist treatment, 3 weeks post 3-VO (Figure 5). As for the experimental part: Pharmacological modulation of arteriogenesis was analysed using a 3 vessel occlusion (3-VO) model for cerebral arteriogenesis in the rat (Occlusion of both vertebral arteries and one carotid artery). Upon occlusion of three of four blood-supplying arteries to the brain, blood flow is redistributed by the recruitment of collateral pathways such as the posterior cerebral artery to supply the hypoperfusion area with blood. The 3-VO model in the rat has been established since 2003 and is acknowledged as a hypoperfusion model for testing cerebral arteriogenesis (Busch, Buschmann et al. 2003). By using the 3-VO model, relevant therapeutic stimulation of arteriogenesis was shown for instance by the application of GM-CSF (Buschmann, Circulation 2003).
Either by inhibition or stimulation of the bradykinin receptor signalling pathways, arteriogenesis was determined and physiological parameters of the brain were tested.
The characterisation of arteriogenesis was carried out via measurement of the artery or blood vessel diameter (posterior cerebral artery - PCA) in addition to via a measurement of the cerebrovascular reactivity (perfusion reserves in the brain). Cerebrovascular anatomy was studied after maximal vasodilation by a modification of the postmortem latex perfusion method of Maeda et al (Maeda, Hata et al. 1998) .

For series [2] the following is noted: relative to the natural ligand Lys-desArg-bradykinin; cited from earlier work.

On to (Des-Arg^9, Leu^8)-bradykinin [H1960], for which the “arteriogenesis (collateral growth)” value in series [1] is on record as “inhibited”.

As to `CNCC(=O)N[C@@H](CCCNC(=N)N)C(=O)N1CCC[C@H]1C(=O)N1CCC[C@H]1C(=O)NCC(=O)N[C@@H](Cc1ccccc1)C(=O)N[C@@H](CO)C(=O)N1CCC[C@H]1C(=O)N[C@H](Cc1ccccc1)C(=O)O` [R838, Sar-[D-Phe]des-Arg^9-bradykinin], in series [2], the susceptibility toward proteolysis entry is reported as “lower”.

The values are drawn from patent publication EP2420245A1, “Therapeutic use of agonists or antagonists of bradykinin receptor 1 or 2, for modulation collateral blood vessel growth” (MAX-DELBRÜCK-CENTRUM FÜR MOLEKULARE MEDIZIN, priority 2010, dated 2012).
